Data reported in ChEMBL document CHEMBL5696441 (Nat Chem Biol, 2011).

Tests used:
[1] = target: Tyrosine-protein kinase Fes/Fps (Homo sapiens) (UniProt P07332); experiment: Inhibition of FES (unknown origin) assessed as remaining activity at 1 uM by Kinome scan method relative to control
[2] = target: Ephrin type-B receptor 3 (Homo sapiens) (UniProt P54753); experiment: Inhibition of human EPHB3 assessed as residual activity at 1 uM using polyEY as substrate in presence of 33P-ATP by ProQinase assay relative to control
[3] = target: Protein kinase C delta type (Homo sapiens) (UniProt Q05655); experiment: Inhibition of PRKCD (unknown origin) assessed as remaining activity at 1 uM by Kinome scan method relative to control
[4] = Anti-inflammatory activity against human derived medium respond PBMC cells assessed as inhibition in stimulated IP-10 chemokine release incubated for 2 hrs in the presence of LPS/SEB/aCD28 by Luminex based sandwich immunoassay; format: functional, cell-based
[5] = target: T1, Myosin light chain kinase (Homo sapiens) (UniProt Q32MK0); experiment: Inhibition of human MYLK3 assessed as residual activity at 1 uM using RB-S6P as substrate in presence of 33P-ATP by ProQinase assay relative to control
T1 sequence (whole entry): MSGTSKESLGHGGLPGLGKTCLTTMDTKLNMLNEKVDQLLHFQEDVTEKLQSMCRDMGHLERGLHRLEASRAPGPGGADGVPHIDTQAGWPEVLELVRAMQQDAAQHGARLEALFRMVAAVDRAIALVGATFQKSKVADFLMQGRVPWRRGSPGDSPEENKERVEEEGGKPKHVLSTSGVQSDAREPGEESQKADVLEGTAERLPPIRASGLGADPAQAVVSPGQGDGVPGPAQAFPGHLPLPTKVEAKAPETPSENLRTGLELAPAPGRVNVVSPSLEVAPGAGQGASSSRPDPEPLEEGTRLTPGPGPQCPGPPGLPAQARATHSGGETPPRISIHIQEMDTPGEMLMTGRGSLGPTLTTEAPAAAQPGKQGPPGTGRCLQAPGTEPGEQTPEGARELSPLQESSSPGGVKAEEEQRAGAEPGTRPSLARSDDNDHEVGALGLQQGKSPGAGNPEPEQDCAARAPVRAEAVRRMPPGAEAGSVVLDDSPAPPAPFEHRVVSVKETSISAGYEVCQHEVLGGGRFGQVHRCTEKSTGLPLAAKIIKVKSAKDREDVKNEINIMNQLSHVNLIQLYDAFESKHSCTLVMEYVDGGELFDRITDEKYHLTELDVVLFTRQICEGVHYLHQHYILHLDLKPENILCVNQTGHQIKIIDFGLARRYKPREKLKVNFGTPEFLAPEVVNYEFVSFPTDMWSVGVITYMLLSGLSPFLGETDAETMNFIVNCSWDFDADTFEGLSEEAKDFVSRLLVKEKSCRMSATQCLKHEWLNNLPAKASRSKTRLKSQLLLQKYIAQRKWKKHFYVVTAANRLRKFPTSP

[6] = target: Cyclin-dependent kinase 1/cyclin B1 (Homo sapiens) (UniProt P06493+P14635); experiment: Inhibition of human CDK1/CycB1 assessed as residual activity at 1 uM using RBER-CHKtide as substrate in presence of 33P-ATP by ProQinase assay relative to control; format: protein-complex assay
[7] = target: Protein-tyrosine kinase 2-beta (Homo sapiens) (UniProt Q14289); experiment: Inhibition of PYK2 (unknown origin) assessed as remaining activity at 1 uM by Kinome scan method relative to control
[8] = target: MAP kinase-interacting serine/threonine-protein kinase 1 (Homo sapiens) (UniProt Q9BUB5); experiment: Inhibition of MKNK1 (unknown origin) assessed as remaining activity at 1 uM by Kinome scan method relative to control
[9] = system: Leucine-rich repeat serine/threonine-protein kinase 2 (Homo sapiens), Q5S007 [G2019S]; experiment: Inhibition of human LRRK2 G2019S mutant assessed as residual activity at 1 uM using RBER-GSK3(14-27) as substrate in presence of 33P-ATP by ProQinase assay relative to control
[10] = target: T2, Muscle, skeletal receptor tyrosine-protein kinase (Homo sapiens) (UniProt O15146); experiment: Inhibition of human MUSK assessed as residual activity at 1 uM using Poly(Ala,Glu,Lys,Tyr)6:2:5:1 as substrate in presence of 33P-ATP by ProQinase assay relative to control
T2 sequence (whole entry): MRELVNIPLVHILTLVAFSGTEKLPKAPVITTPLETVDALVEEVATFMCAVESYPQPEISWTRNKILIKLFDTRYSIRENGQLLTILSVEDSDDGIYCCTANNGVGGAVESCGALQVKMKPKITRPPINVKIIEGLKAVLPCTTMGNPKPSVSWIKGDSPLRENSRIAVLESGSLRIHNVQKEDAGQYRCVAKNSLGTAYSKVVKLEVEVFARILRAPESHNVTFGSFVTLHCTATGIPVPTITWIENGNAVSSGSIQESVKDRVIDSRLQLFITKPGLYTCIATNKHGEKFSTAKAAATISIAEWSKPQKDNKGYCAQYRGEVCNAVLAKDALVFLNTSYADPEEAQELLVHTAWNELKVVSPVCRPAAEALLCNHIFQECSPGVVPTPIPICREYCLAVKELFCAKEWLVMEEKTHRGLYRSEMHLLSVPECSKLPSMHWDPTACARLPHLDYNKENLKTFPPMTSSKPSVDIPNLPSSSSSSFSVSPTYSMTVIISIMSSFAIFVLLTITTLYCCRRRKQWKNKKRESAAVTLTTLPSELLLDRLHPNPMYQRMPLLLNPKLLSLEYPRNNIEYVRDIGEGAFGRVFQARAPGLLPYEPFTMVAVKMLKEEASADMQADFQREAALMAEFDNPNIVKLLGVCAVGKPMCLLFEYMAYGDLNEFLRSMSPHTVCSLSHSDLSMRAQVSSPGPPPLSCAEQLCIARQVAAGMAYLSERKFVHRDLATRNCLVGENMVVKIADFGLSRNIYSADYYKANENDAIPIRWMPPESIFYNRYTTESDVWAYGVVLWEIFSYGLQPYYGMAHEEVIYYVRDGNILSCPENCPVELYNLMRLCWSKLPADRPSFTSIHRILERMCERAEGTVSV

[11] = target: Vascular endothelial growth factor receptor 1 (Homo sapiens) (UniProt P17948); experiment: Inhibition of human VEGFR1 assessed as residual activity at 1 uM using polyEY as substrate in presence of 33P-ATP by ProQinase assay relative to control
[12] = target: Tyrosine-protein kinase Fer (Homo sapiens) (UniProt P16591); experiment: Inhibition of FER (unknown origin) assessed as remaining activity at 1 uM by Kinome scan method relative to control
[13] = target: Glycogen synthase kinase-3 alpha (Homo sapiens) (UniProt P49840); experiment: Inhibition of GSK3alpha (unknown origin) assessed as remaining activity at 1 uM by Kinome scan method relative to control
Glycogen synthase kinase-3 alpha (Homo sapiens), sequence (P49840 2-483 limits assumed): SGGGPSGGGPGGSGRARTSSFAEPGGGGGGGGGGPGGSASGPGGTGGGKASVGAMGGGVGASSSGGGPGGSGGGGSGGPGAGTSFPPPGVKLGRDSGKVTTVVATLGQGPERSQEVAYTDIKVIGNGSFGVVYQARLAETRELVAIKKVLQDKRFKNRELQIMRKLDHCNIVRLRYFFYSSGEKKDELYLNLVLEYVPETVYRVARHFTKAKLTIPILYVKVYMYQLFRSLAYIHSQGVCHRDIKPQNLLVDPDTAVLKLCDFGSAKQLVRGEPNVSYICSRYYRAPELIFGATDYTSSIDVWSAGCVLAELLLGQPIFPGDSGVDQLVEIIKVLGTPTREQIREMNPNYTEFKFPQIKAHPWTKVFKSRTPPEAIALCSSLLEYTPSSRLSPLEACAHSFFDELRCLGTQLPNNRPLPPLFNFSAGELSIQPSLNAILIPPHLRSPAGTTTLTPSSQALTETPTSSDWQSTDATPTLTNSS

Cyclin-dependent kinase 1/cyclin B1 (Homo sapiens), sequence (P06493 whole entry, looked up): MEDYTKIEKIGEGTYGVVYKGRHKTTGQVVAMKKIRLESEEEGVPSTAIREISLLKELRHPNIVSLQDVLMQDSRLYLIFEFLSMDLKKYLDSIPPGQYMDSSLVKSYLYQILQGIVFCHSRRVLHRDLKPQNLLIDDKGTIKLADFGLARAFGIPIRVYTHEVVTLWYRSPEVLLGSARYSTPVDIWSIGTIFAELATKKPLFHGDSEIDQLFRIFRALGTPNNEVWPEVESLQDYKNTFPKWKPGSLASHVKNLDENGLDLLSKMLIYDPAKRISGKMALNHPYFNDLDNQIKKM
Cyclin-dependent kinase 1/cyclin B1 (Homo sapiens), sequence (P14635 whole entry, looked up): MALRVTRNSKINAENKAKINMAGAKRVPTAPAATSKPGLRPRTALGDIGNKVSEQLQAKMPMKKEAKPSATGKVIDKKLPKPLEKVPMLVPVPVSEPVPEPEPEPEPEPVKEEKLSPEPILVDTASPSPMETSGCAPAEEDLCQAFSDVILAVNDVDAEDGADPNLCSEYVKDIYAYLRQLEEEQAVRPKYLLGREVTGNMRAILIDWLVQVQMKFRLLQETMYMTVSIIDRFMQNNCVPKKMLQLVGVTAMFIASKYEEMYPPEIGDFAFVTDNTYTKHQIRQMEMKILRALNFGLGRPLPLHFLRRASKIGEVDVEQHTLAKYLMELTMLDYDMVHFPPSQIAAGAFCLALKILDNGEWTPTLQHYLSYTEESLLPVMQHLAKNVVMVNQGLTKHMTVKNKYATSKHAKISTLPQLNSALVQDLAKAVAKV
Tyrosine-protein kinase Fes/Fps (Homo sapiens), sequence (P07332 whole entry): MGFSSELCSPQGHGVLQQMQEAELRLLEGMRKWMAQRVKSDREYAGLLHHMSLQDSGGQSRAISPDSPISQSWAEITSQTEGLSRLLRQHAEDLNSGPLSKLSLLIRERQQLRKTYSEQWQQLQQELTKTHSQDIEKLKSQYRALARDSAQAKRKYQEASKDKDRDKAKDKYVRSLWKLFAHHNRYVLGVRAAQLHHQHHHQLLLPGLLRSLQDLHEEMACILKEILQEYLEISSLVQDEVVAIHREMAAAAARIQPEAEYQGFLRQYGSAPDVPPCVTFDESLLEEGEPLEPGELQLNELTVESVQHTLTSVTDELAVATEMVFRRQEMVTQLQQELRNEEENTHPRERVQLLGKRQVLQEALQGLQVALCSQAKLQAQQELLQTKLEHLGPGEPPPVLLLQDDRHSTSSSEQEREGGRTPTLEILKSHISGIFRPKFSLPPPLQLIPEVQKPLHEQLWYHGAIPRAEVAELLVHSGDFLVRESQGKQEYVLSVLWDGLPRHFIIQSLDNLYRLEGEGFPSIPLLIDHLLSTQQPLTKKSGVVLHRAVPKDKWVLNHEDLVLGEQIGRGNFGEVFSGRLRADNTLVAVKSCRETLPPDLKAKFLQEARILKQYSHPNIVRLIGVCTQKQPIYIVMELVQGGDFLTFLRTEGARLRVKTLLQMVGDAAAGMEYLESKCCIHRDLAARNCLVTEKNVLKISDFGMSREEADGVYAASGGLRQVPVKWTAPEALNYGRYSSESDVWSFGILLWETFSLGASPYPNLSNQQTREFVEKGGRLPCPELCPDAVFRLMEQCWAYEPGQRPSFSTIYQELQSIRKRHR
MAP kinase-interacting serine/threonine-protein kinase 1 (Homo sapiens), sequence (Q9BUB5 whole entry, looked up): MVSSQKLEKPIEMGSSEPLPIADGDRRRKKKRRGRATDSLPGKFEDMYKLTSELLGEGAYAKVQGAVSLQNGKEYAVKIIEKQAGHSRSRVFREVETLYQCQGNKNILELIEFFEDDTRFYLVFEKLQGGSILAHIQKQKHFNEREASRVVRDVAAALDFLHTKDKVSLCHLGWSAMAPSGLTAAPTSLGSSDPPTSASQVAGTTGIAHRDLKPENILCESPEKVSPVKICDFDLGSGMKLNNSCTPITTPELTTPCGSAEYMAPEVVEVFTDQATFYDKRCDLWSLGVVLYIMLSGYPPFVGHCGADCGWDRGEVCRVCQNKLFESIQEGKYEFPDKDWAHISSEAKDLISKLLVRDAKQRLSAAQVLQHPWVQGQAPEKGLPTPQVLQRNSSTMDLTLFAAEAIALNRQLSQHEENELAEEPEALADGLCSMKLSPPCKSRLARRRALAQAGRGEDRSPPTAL
Protein-tyrosine kinase 2-beta (Homo sapiens), sequence (Q14289 whole entry, looked up): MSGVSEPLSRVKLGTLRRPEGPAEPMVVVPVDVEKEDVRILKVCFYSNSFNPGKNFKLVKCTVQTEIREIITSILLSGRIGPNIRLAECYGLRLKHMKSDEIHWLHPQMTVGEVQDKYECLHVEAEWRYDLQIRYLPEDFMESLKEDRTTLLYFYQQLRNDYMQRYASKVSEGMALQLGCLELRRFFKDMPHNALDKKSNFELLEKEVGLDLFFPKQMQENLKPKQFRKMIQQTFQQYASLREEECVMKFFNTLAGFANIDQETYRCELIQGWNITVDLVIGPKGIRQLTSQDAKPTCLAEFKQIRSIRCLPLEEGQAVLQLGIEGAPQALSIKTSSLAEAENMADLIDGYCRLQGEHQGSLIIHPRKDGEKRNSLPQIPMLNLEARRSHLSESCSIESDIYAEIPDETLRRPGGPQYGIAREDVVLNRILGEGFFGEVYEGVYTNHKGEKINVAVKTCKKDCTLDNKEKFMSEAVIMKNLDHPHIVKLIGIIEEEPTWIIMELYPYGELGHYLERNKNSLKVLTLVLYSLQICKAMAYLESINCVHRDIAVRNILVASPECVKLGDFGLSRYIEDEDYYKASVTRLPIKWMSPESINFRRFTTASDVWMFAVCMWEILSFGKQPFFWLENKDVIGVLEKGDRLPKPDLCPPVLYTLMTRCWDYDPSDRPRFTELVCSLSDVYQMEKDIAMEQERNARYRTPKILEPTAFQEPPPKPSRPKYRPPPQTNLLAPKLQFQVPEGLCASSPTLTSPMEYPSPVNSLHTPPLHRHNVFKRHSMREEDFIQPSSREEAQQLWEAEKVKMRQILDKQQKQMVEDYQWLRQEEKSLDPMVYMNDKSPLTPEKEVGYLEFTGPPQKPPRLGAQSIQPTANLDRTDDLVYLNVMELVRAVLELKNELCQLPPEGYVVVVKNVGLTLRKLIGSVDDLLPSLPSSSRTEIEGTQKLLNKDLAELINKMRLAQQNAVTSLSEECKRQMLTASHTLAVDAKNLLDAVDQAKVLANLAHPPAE
Vascular endothelial growth factor receptor 1 (Homo sapiens), sequence (P17948 whole entry): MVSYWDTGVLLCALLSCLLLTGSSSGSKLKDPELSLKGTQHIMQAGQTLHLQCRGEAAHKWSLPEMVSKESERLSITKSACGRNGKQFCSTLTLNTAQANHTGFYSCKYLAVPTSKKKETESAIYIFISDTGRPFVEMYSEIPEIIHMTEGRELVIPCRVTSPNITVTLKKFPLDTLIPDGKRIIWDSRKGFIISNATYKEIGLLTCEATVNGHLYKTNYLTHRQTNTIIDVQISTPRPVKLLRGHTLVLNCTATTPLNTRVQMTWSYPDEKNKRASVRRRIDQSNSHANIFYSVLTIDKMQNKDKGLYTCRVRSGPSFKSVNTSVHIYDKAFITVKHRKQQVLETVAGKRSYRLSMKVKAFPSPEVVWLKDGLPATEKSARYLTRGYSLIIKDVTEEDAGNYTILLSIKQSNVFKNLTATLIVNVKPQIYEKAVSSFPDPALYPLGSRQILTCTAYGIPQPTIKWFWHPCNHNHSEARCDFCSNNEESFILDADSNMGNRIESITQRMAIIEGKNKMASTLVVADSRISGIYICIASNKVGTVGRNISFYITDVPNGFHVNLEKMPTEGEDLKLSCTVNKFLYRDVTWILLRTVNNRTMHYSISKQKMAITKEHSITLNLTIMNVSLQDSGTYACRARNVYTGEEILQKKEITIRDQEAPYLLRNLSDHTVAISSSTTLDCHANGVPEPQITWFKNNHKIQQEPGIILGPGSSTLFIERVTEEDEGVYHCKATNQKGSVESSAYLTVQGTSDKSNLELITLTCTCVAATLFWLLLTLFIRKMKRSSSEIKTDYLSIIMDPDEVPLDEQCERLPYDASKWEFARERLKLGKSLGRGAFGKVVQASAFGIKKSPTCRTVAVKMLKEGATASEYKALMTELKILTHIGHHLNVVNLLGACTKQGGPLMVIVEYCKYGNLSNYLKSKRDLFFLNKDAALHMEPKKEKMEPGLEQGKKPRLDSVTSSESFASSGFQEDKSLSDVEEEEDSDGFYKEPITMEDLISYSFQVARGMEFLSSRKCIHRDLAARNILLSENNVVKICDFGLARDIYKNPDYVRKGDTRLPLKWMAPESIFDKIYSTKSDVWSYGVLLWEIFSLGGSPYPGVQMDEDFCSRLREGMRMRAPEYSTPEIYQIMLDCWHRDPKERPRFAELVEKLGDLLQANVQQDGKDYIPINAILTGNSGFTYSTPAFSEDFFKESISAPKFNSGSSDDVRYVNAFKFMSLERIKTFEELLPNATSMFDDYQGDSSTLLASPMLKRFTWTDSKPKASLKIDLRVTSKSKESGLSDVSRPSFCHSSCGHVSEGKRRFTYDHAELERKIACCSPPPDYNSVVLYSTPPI

Q: With `O=C1c2ccc(Nc3ccc(F)cc3F)cc2CCc2ccc(OC[C@H](O)CO)cc21` [Skepinone-L] as the compound, how does the Activity [1] read?
A: Its Activity is 100%.

Q: And the Activity [2]?
A: Its Activity is 108%.

Q: And the Activity [3]?
A: Its Activity is 94%.

Q: What about the IC50 [4] of the same compound?
A: The IC50 was 5.9 µM.

Q: What about the Activity [5] of the same compound?
A: The Activity was 85%.

Q: And the Activity [6]?
A: The Activity was 83%.

Q: And the Activity [7]?
A: The Activity was 100%.

Q: And the Activity [8]?
A: Its Activity is 99%.

Q: And the Activity [9]?
A: Its Activity is 77%.

Q: And the Activity [10]?
A: The Activity was 106%.

Q: What about the Activity [11] of the same compound?
A: The Activity was 113%.

Q: What about the Activity [12] of the same compound?
A: The Activity was 100%.

Q: And the Activity [13]?
A: The Activity was 100%.
